Experimental data from patent US20070112035A1, “Substituted oxyarenes” (BAYER CROPSCIENCE AKTIENGESELLSCHAFT, priority 2003, published 2007).
Like-named read-outs stand apart in the source and are kept apart here.

Tests used:
[1] = tested on: cabbage moth larvae (Plutella xylostella); experiment: Plutella test (cabbage leaves, immersion); assay type: in vivo
Experimental: (§1) Solvent: 7 Parts by weight of dimethylformamide
(§2) Emulsifier: 2 Parts by weight of alkyl-aryl polyglycol ether
(§3) For the production of a practical active agent preparation, one mixes 1 part by weight of active substance with the specified amount of solvent and emulsifier and dilutes the concentrate to the desired concentration with water containing an emulsifier.
Cabbage leaves (Brassica oleracea) are treated through immersion in the active substance preparation of the desired concentration and filled with cabbage moth larvae (Plutella xylostella), while the leaves are still moist.
(§4) After the desired time the mortality in % is determined. In doing so, 100% means that all larvae were killed; 0% means that no larvae were killed.

[2] = tested on: fall armyworm larvae (Spodoptera exigua); experiment: Spodoptera exigua test (cabbage leaves, immersion); assay type: in vivo
Experimental: as §1, §2, §3
Cabbage leaves (Brassica oleracea) are treated through immersion in the active substance preparation of the desired concentration and filled with fall armyworm larvae (Spodoptera exigua), while the leaves are still moist.
as §4

[3] = tested on: fall armyworm larvae (Spodoptera frugiperda); experiment: Spodoptera frugiperda test (spray treatment); assay type: in vivo; conditions: 100 ppm active substance, maize leaf slices
Description: Spodoptera frugiperda Test (Spray Treatment) Solvent: 78 Parts by weight of acetone • • 1.5 Parts by weight of dimethylformamide Emulsifier: 0.5 Parts by weight of alkyl-aryl polyglycol ether For the production of a practical active agent preparation, one mixes 1 part by weight of active substance with the specified amount of solvent and emulsifier and dilutes the concentrate to the desired concentration with water containing an emulsifier. Maize leaf slices (Zea mays) are sprayed with an active substance preparation of the desired concentration and filled with fall armyworm larvae (Spodoptera frugiperda) after drying. After the desired time the effect in % is determined. In doing so, 100% means that all larvae were killed; 0% means that no larvae were killed.

[4] = tested on: common spider mite (Tetranychus urticae); experiment: Tetranychus test (OP-resistant/spray treatment); assay type: in vivo; conditions: 100 ppm active substance, spray treatment, bean leaf slices, OP-resistant
Description: Tetranychus Test (OP-Resistant/Spray Treatment)
Solvent: 78 Parts by weight of acetone • • 1.5 Parts by weight of dimethylformamide
Emulsifier: 0.5 Parts by weight of alkyl-aryl polyglycol ether
as §3
Bean leaf slices (Phaseolus vulgaris) that are affected by all stages of the common spider mite (Tetranychus urticae) are sprayed with a active substance preparation of the desired concentration.
After the desired time the effect in % is determined. In doing so, 100% means that all spider mites were killed; 0% means that no spider mites were killed.

log P (physical data) = assay type: physicochemical
[5] = tested on: Heliothis armigera larvae; experiment: Heliothis armigera test (soy sprouts, immersion); assay type: in vivo; conditions: Helicoverpa armigera, 168 h, 100 ppm active substance, after 7 days
Experimental: as §1, §2, §3
Soy sprouts (Glycine max) are treated through immersion in the active substance preparation of the desired concentration and filled with Heliothis armigera larvae, while the leaves are still moist.
as §4

[6] = tested on: Meloidogyne incognita egg/larvae suspension; experiment: Meloidogyne test (gall formation on lettuce); assay type: in vivo; conditions: 20 ppm active substance; nematicidal effect by gall formation, 100% = no galls
Description: Meloidogyne Test Solvent: 7 Parts by weight of dimethylformamide Emulsifier: 2 Parts by weight of alkyl-aryl polyglycol ether For the production of a practical active agent preparation, one mixes 1 part by weight of active substance with the specified amount of solvent and emulsifier and dilutes the concentrate to the desired concentration with water. Vessels are filled with sand, active substance solution, Meloidogyne incognita egg/larvae suspension and lettuce seeds. The lettuce seeds germinate and the seedlings grow. The galls grow on the roots. After the desired time, the nematicidal effect is determined by means of gall formation in %. In doing so, 100% means that no galls were found; 0% means that the number of galls on the treated plants corresponds to the untreated control.

[7] = 100 ppm active substance, after 7 days, cabbage leaves

SMILES | Effect in % after 7 days [3] | Effect in % after 7 days [4] | other results
COc1c(Cl)cc(OCC=C(Cl)Cl)cc1C1=NOC(CCOc2ccc(OCC(F)(F)F)nc2)C1 (racemic) [Example I-6, (R/S)-3-(2-methoxy-3-chloro-5-(dichloropropenoxy)phenyl)-5-((6-trifluorethoxypyridin-3-yl)-2-(ethyl)ether-1-yl)Δ^2-isoxazoline] | 100% | – | mortality [1, 7]: 100%; mortality [2, 7]: 100%
COc1c(Cl)cc(OCC=C(Cl)Cl)cc1C1=NOC(CCCOc2ccc(OCC(F)(F)F)nc2)C1 (racemic) [Example I-7, (R/S)-3-(2-methoxy-3-chloro-5-(dichloropropenoxy)phenyl)-5-((6-trifluorethoxypyridin-3-yl)-3-(propyl)ether-1-yl)Δ^2-isoxazoline] | 100% | 80% | –
COc1c(Cl)cc(OCC=C(Cl)Cl)cc1C1=NOC(CCOc2ccc(OCC(F)(F)F)nc2)C1 (racemic) [Example I-11, (R/S)-3-(2-methoxy-3-chloro-5-(dichloropropenoxy)phenyl)-5-((6-trifluorethoxypyridin-3-yl)-2-(ethyl)ether-1-yl)Δ^2-isoxazoline] | 100% | – | –
COc1ccc(OCC=C(Cl)Cl)cc1-c1noc(CCCOc2ccc(C(F)(F)F)cn2)n1 [Example I-127, 2-(3-{3-[5-(3,3-dichloro-allyloxy)-2-methoxy-phenyl]-[1,2,4]oxadiazol-5-yl}-propoxy)-5-trifluoromethyl-pyridine] | – | – | logP (log P (physical data); neutral, read-out: log P (neutral)): 4.93
COc1c(Cl)cc(OCC=C(Cl)Cl)cc1C1=NOC(COc2ccc(C(F)(F)F)cn2)C1 (racemic) [Example I-5, (R/S)-3-(2-methoxy-3-chloro-5-(dichlorpropenoxy)phenyl)-5-((5-trifluormethylpyridin-2-yl)-2-(methyl)ether-1-yl)Δ^2-isoxazoline] | 10% | – | –
COc1c(Cl)cc(OCC=C(Cl)Cl)cc1-c1cc(CCOc2ccc(C(F)(F)F)cn2)on1 [Example I-9, 3-(2-methoxy-3-chloro-5-(dichloropropenoxy)phenyl)-5-((5-trifluormethylpyridin-2-yl)-2-(ethyl)ether-1-yl)isoxazole] | 100% | 90% | –
COc1c(Cl)cc(OCC=C(Cl)Cl)cc1C1=NOC(CCCCOc2ccc(C(F)(F)F)cn2)C1 (racemic) [Example I-10, (R/S)-3-(2-methoxy-3-chloro-5-(dichloropropenoxy)phenyl)-5-((5-trifluormethylpyridin-2-yl)-4-(butyl)ether-1-yl)Δ^2-isoxazoline] | 100% | 80% | –
COc1c(Cl)cc(OCC=C(Cl)Cl)cc1C1=NOC(CCCOc2ccc(C(F)(F)F)cn2)C1 (racemic) [Example I-1, (R/S)-3-(2-methoxy-3-chloro-5-(1,1-dichloro-1-propen-3-oxy)-phenyl)-5-((5-trifluormethylpyridin-2-yl)-3-(propyl)ether-1-yl)-Δ^2-isoxazoline] | 100% | 100% | mortality at 100 ppm [5]: 100%; Effect in % after 14 days [6]: 80%; mortality at 100 ppm ([1]; Plutella xylostella, 168 h): 100%; mortality at 100 ppm ([2]; Spodoptera exigua, 168 h): 100%
COc1c(Cl)cc(OCC=C(Cl)Cl)cc1C1=NC(CO)CO1 (centres unmarked) [{2-[3-chloro-5-(3,3-dichloro-allyloxy)-2-methoxy-phenyl]-4,5-dihydro-oxazol-4-yl}-methanol] | – | – | logP (log P (physical data); pH=2.3, read-out: log P(pH=2.3)): 2.05
COc1c(Cl)cc(OCC=C(Cl)Cl)cc1-c1nc(CCCOc2ccc(C(F)(F)F)cn2)no1 [Example I-128, 2-(3-{5-[3-chloro-5-(3,3-dichloro-allyloxy)-2-methoxy-phenyl]-[1,2,4]oxadiazol-3-yl}-propoxy)-5-trifluoromethyl-pyridine] | – | – | logP (log P (physical data); read-out: log P): 5.99
